# Assay results from PMC5962708, “Structure-Based Design, Synthesis, Biological Evaluation, and Molecular Docking of Novel PDE10 Inhibitors With Antioxidant Activities” (Frontiers in Chemistry, 2018).
# Several values for one entry are separate records, joined by “and”; a condition that tells them apart may be missing. Identical values can stand only once.
# Tests used:
# PDE10A = tested on: PDE10A; set-up: method as in Siuciak et al., 2006a; conditions: ref Siuciak et al., 2006a; read-out: IC50 toward PDE10A; cited from earlier work
# [1] = biological target: T1, PDE10A catalytic domain (residues 446-789) (Homo sapiens, UniProt Q9Y233); assay: PDE10A enzymatic assay (3H-cGMP hydrolysis, scintillation counting); type: biochemical; conditions: for inhibition at 1 µM: compound concentration 1 μM, read-out: PDE10 inhibitory assay Inhibition ratio (1 μM) (%); for IC50: mean of three independent determinations, 3H-cGMP substrate, read-out: PDE10 inhibitory assay IC50
# T1 construct: coding the catalytic domain (residues 446-789); inferred from the pET15b vector and the Ni-NTA purification) (N); made in house; host or cells: E. coli BL21 (Codonplus, Stratagene)
# Method: The recombinant pET15b-PDE10A plasmid coding the catalytic domain (residues 446-789) was subcloned and purified according to the following protocols previously reported (Li et al., [2015]). Then it was transferred into E. coli strain BL21 (Codonplus, Stratagene). The E. coli cells carrying the recombinant plasmid were cultured in an 2XYT medium (containing 100 μg/mL ampicillin and 30 μg/mL chloramphenicol) at 37°C until OD600 = 0.6-0.8. And then, 1 mM isopropyl-β-D-thiogalactopyranoside was added in to induce the PDE10A protein expression at 20°C for 24 h. The nickel nitriloacetic acid (Ni-NTA) column (Qiagen) was used for purifying PDE10A proteins. The concentration of the PDE10 fractions was estimated based on the absorbance at 280 nm (calculated by the ProtParam software).
# The enzymatic activities of the catalytic domains of PDE10A were performed using ^3H-cGMP solution in the assay buffer of 50 mM Tris pH = 7.5, 4 mM MgCl2, 1 mM DTT, and ^3H-cGMP giving 20,000–30,000 cpm after the reaction terminated per assay. To a solution (DMSO) of test compounds in different concentration, the PDE10A enzyme in the assay buffer was added to perform the enzymatic reaction and then incubated at room temperature for 15 min. The assay was then terminated by addition of 0.2 M ZnSO4, Subsequently, 0.2 N Ba(OH)2 was added to precipitate the reaction product ^3H-GMP, whereas unreacted ^3H-cGMP remained in the supernatant. The radioactivity in the supernatant was measured in 2.5 mL Ultima Gold liquid scintillation cocktails (PerkinElmer) by a liquid scintillation counter (PerkinElmer 2910). The IC50 values of test compounds at PDE10A enzymes were measured by repeating of three independent experiments using the nonlinear regression method.
# [2] = Antioxidant assay: oxygen radical absorbance capacity fluorescein (ORAC-FL) method; conditions: AAPH 12 mM, fluorescein 150 nM, pH 7.4, 37°C, samples 1–10 μM
# Method: The modified oxygen radical absorbance capacity fluorescein (ORAC-FL) method was performed to determine the antioxidant activity (Ou et al., [2001]; Dávalos et al., [2004]). The reaction was diluted with 75 mM phosphate buffer (pH = 7.4), and the volume of the final reaction mixture was 200 μL in well. Test compound (20 μL) and fluorescein (120 μL, 150 nM final concentration) were placed in the well of a black 96 well optical bottom plates. After the mixture was incubated at 37°C for 15 min, AAPH solution (60 μL, 12 mM final concentration) was added rapidly. The plate was placed in a Spectrafluor Plus plate reader (Tecan, Crailsheim, Germany) and the fluorescence was recorded every minute for 4 h with an excitation wavelength at 485 nm and emission wavelength at 535 nm. Trolox was used as standard (1–8 μM, final concentration). A blank (fluorescein + AAPH) with phosphate buffer instead of test compounds and trolox calibration were performed for the assays of antioxidants. The samples were measured at different concentration (1–10 μM). All the reaction mixtures were prepared fourfold, and at least three independent assays were performed for each sample. Fluorescence in time course was normalized on basis of the blank (without antioxidants). The ORAC-FL values were calculated as the reported method. Final ORAC-FL values were expressed in μM of trolox equivalents. Ferulic acid was used as the positive reference compound, showing an ORAC-FL value of 1.6 trolox equivalents.
# T1 sequence (Q9Y233 712-1055): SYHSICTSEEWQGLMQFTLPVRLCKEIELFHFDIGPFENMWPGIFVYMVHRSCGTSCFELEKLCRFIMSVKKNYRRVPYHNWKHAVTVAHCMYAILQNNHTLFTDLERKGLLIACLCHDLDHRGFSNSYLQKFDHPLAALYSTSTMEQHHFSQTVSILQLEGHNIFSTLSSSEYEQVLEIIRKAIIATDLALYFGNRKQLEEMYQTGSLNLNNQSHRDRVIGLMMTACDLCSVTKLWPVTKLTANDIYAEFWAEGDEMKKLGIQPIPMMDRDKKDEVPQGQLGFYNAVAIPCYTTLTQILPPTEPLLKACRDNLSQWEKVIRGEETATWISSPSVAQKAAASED
SMILES,IC50 (PDE10A) [nM],inhibition at 1 µM [1] [%],ORAC (oxygen radical absorbance capacity) [2],IC50 [1]
COc1ccc(Cc2nccc3cc(OC)c(OC)cc23)cc1OC [Papaverine],10 to 300,–,–,–
"COc1cc2ncnc(NCCc3c[nH]c4ccc(C)cc34)c2cc1OC [Compound 11g, 6,7-dimethoxy-N-(2-(5-methyl-1H-indol-3-Yl)ethyl)quinazolin-4-amine]",–,64,1.0 ± 0.2 trolox equivalents,–
"COc1cc2ncnc(N3CCOCC3)c2cc1OC(=O)C=Cc1ccc(O)cc1 [Compound 8b, 7-methoxy-4-morpholinoquinazolin-6-yl 3-(4-hydroxyphenyl)acrylate]",–,26,3.3 trolox equivalents and 3.3 ± 0.1 trolox equivalents,–
"COc1cc2ncnc(NCCc3c[nH]c4ccc(O)cc34)c2cc1OC [Compound 11e, 3-(2-((6,7-dimethoxyquinazolin-4-yl)amino)ethyl)-1H-indol-5-ol]",–,76,2.3 trolox equivalents and 2.3 ± 0.2 trolox equivalents,< 1000 nM and 640 nM
"COc1cc2ncnc(NCCc3c[nH]c4ccc(Br)cc34)c2cc1OC [Compound 11h, N-(2-(5-bromo-1H-indol-3-yl)ethyl)-6,7-dimethoxyquinazolin-4-amine]",–,66,1.9 ± 0.1 trolox equivalents,–
"COc1cc2ncnc(NCCc3c[nH]c4cc(F)ccc34)c2cc1OC [Compound 11f, N-(2-(6-fluoro-1H-indol-3-yl)ethyl)-6,7-dimethoxyquinazolin-4-amine]",–,78,1.0 trolox equivalents and 1.0 ± 0.1 trolox equivalents,< 1000 nM and 330 nM
"COc1ccc2[nH]cc(CC(C)Nc3ncnc4cc(OC)c(OC)cc34)c2c1 (stereo not drawn) [Compound 11d, 6,7-dimethoxy-N-(1-(5-methoxy-1H-indol-3-yl)propan-2-yl)quinazolin-4-amine]",–,56,1.3 trolox equivalents and 1.3 ± 0.1 trolox equivalents,–
"COc1cc2ncnc(N3CCOCC3)c2cc1OCCc1c[nH]c2ccccc12 [Compound 8a, 4-(6-(2-(1H-indol-3-yl)ethoxy)-7-methoxyquinazolin-4-yl) morpholine]",–,57,1.0 trolox equivalents and 1.0 ± 0.1 trolox equivalents,–
"COc1cc2ncnc(NCCc3c[nH]c4ccccc34)c2cc1OC [Compound 11a, N-(2-(1H-indol-3-yl)ethyl)-6,7-dimethoxyquinazolin-4-amine]",–,72,1.3 ± 0.1 trolox equivalents,< 1000 nM and 760 nM
"COc1ccc2[nH]cc(CCNc3ncnc4cc(OC)c(OC)cc34)c2c1 [Compound 11c, 6,7-dimethoxy-N-(2-(5-methoxy-1H-indol-3-yl)ethyl)quinazolin-4-amine]",–,49,2.2 trolox equivalents and 2.2 ± 0.03 trolox equivalents,–
"COc1cc(/C=C/C(=O)O)ccc1O [Ferulic acid, reference compound]",–,–,1.6 trolox equivalents and 1.6 ± 0.1 trolox equivalents,–
"COc1cc2ncnc(NCCc3nc4ccccc4[nH]3)c2cc1OC [Compound 13, N-(2-(1H-benzo[d]imidazol-2-yl)ethyl)-6,7-dimethoxyquinazolin-4-amine]",–,80,0.15 ± 0.02 trolox equivalents,< 1000 nM and 680 nM
"COc1cc2ncnc(NC(C)Cc3c[nH]c4ccccc34)c2cc1OC (stereo not drawn) [Compound 11b, N-(1-(1H-indol-3-yl)propan-2-yl)-6,7-dimethoxyquinazolin-4-amine]",–,66,1.5 ± 0.1 trolox equivalents,–
"COc1cc2ncnc(N3CCOCC3)c2cc1OC(=O)CCCCC1CCSS1 (stereo not drawn) [Compound 8c, 7-methoxy-4-morpholinoquinazolin-6-yl 5-(1,2-dithiolan-3-yl)pentanoate]",–,24,0.3 ± 0.01 trolox equivalents,–
COc1cc2ncnc(NC(C)CCc3c[nH]c4ccccc34)c2cc1OC (stereo not drawn) [Compound 12],–,84,1.3 trolox equivalents and 1.3 ± 0.2 trolox equivalents,< 1000 nM and 240 nM
